Source: patent EP4810508A1, “ARABINOSE DERIVATIVE COMPOUND, AND COMPOSITION COMPRISING SAME FOR PREVENTING OR TREATING DEGENERATIVE BRAIN DISEASES” (Digmbio. Inc., priority 2023, dated 2025)
Read-outs that look alike come from different tables or passages of the source.

Legend:
HRE/Luc/HEK293 cells = experiment: HRE (Hypoxia Response Element) luciferase assay; type: cell-based, human; conditions: for fold induction at 10 µM / fold induction at 100 µM: Homo sapiens; for HRE assay: increase in HRE expression levels by the test substance relative to the vehicle in HRE/Luc/HEK293 cells
Summary of the method: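 HRE-luciferase HEK293 cells in MEM/10% FBS pretreated with compound 6 h, then held under hypoxia (0.1% O2) 18 h; luminescence read after lysis. Scored as fold increase over vehicle, with twofold threshold at 100, 10 or 1 µM.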

male ICR mice [1] = experiment: Scopolamine-induced cognitive impairment model: Y-maze test; type: in vivo; conditions: for percent recovery of cognitive function (Y-maze) at 50 mg/kg: Mus musculus, po, 168 h; for in vivo Y-maze (%): spontaneous alternation
Excerpt: (§1) A memory loss rodent animal model induced by scopolamine intraperitoneal administration is used, and an evaluation method for memory uses a Y-maze test and a passive avoidance test (PAT). Scopolamine is a representative experimental model showing an impairment of cognitive function similar to AD patients by blocking neurotransmitters when administered to an animal as an antagonist of a muscarinic acetylcholine receptor, and as a cognitive function evaluation technique, a Y-maze test and a passive avoidance experiment, which are general and representative methods, were used, and in order to objectify the efficacy levels of the compounds, a group administered with donepezil (Aricept, Eisa) as a positive control material was separately provided to compare the efficacy levels of the compounds.
(§2) In order to evaluate cognitive function, 5-week-old male ICR mice were used, the compounds to be evaluated were prepared at a dose of 50 mg/kg/ml and repeatedly orally administered at a predetermined time for 7 days, and the positive control material was carried out at 5 mg/kg/ml. After the last administration, after 30 minutes of intraperitoneal administration of 1 mg/kg/2 ml of scopolamine, a Y-maze test and a passive avoidance test, which are cognitive function evaluations, were performed.
The Y-maze test is a method for evaluating the ability to sequentially act as an experiment for measuring short-term memory. The measurement equipment is composed of three branches, each branch has a length of 42 cm, a width of 3 cm, and a height of 12 cm, and an angle at which three branches are folded is 120°. Experimental animals are put into each branch for 8 minutes, and the number of times of entering the branches to the tail of the experimental animal and the case of being sequentially received in each branch are scored (actual alternation). The alternation behavior is defined as entering not to overlap all three, and is calculated by the following equation. [formula]

male ICR mice [2] = experiment: Scopolamine-induced cognitive impairment model: passive avoidance test (PAT); type: in vivo; conditions: for percent recovery of memory in passive avoidance test (normal group = 100, scopolamine control = 0) at 50 mg/kg: Mus musculus, po, 168 h, read-out: in vivo(effect) PAT (%); for in vivo PAT: time staying in bright room (step-through latency); for cognitive function recovery compared to normal animals, passive avoidance test (effect %): compounds 50 mg/kg, orally for 7 days, scopolamine 1 mg/kg intraperitoneal
Excerpt: as §1, §2
In addition, the passive avoidance test was conducted using an avoidance learning box (Jeondo B&P, Korea, Seoul), and the avoidance learning box is divided into a dark room and a bright room, and when a laboratory animal is put into a bright room, the subject goes beyond the dark room. At the moment, an electric shock of 0.5 mA is applied for 5 seconds, and when the next day experimental animal is put back into a bright room, an electric shock in a dark room is memorized and stay in a bright room. In this case, a step-through latency is measured to evaluate memory. The efficacy of the compounds of the present invention against the normal group and the control group in the Y-maze test and the passive avoidance test was described in the following Table 3 (Scopolamine-induced cognitive impairment model result).

[3] = HEK293, fold increase of HRE expression, hypoxic conditions (O2 0.1%) 18 hours, Table 2, read-out: HRE-increasing 10uM
[4] = HEK293, fold increase of HRE expression, hypoxic conditions (O2 0.1%) 18 hours, Table 2, read-out: HRE-increasing 100uM
[5] = read-out: in vivo(effect) Y-maze (%)
[6] = scopolamine 1 mg/kg i.p., compounds 50 mg/kg oral for 7 days, donepezil 5 mg/kg (avg.)
[7] = read-out: cognitive function recovery compared to normal animals, Y-maze experiment (effect %)
[8] = effect compared to normal group (100) and control group (0), compounds 50 mg/kg oral for 7 days, donepezil 5 mg/kg (avg.)
[9] = range over experiment sets, donepezil 5 mg/kg oral for 7 days, scopolamine 1 mg/kg i.p.
[10] = range over experiment sets, effect compared to normal and control group, donepezil 5 mg/kg

SMILES	fold induction at 10 µM (HRE/Luc/HEK293 cells; [3])	fold induction at 100 µM (HRE/Luc/HEK293 cells; [4])	percent recovery of cognitive function (Y-maze) at 50 mg/kg (male ICR mice [1]; [5])	in vivo Y-maze (%) (male ICR mice [1]; [6])	percent recovery of memory in passive avoidance test (normal group = 100, scopolamine control = 0) at 50 mg/kg (male ICR mice [2])	in vivo PAT (male ICR mice [2]; [6])	percent recovery of cognitive function (Y-maze) at 50 mg/kg (male ICR mice [1]; [7])	also measured
COc1ccc(Cc2ccc(O[C@H]3O[C@@H](C)[C@@H](O)[C@@H](O)[C@@H]3O)cc2)cc1 [Example 6, (2R,3S,4R,5S,6S)-2-(4-(4-methoxybenzyl)phenoxy)-6-methyltetrahydro-2H-pyran-3,4,5-triol]	< 1	1.5	-6%	53%	10%	109 s		HRE assay (HRE/Luc/HEK293 cells): •
Cc1ccc(Cc2ccc(O[C@H]3OC[C@H](O)[C@H](O)[C@H]3O)cc2)cc1 [Example 2, (2R,3R,4S,5S)-2-(4-(4-methylbenzyl)phenoxy) tetrahydro-2H-pyran-3,4,5-triol]	2.5	3.2	51%	63%	25%	134 s	≥ 50%	HRE assay (HRE/Luc/HEK293 cells): •••
CC(C)c1ccc(Oc2ccc(O[C@H]3OC[C@H](O)[C@H](O)[C@H]3O)cc2)cc1 [Example 35, (2R,3R,4S,5S)-2-(4-(4-isopropylphenoxy)phenoxy)tetrahydro-2H-pyran-3,4,5-triol]	3.7	< 1	41%	59%	45%	141 s		HRE expression (HRE/Luc/HEK293 cells; concentration of 10 µM): more than threefold
O[C@@H]1[C@@H](O)[C@@H](Oc2ccc(Cc3ccsc3)cc2)OC[C@@H]1O [Example 23, (2R,3R,4S,5S)-2-(4-(thiophen-3-ylmethyl)phenoxy)tetrahydro-2H-pyran-3,4,5-triol]	1.6	2.7	41%	59%	22%	87 s		
COc1ccc(Cc2cccc(O[C@H]3OC[C@H](O)[C@H](O)[C@H]3O)c2)cc1 [Example 25, (2R,3R,4S,5S)-2-(3-(4-methoxybenzyl)phenoxy)tetrahydro-2H-pyran-3,4,5-triol]			65%	62%	1%	42 s	≥ 50%	
CC(C)c1ccc(Cc2ccc(O[C@H]3OC[C@H](O)[C@H](O)[C@H]3O)cc2)cc1 [Example 7, (2R,3R,4S,5S)-2-(4-(4-isopropylbenzyl)phenoxy)tetrahydro-2H-pyran-3,4,5-triol]	3.5	< 1	57%	65%	73%	179 s	≥ 50%	HRE expression (HRE/Luc/HEK293 cells; concentration of 10 µM): more than threefold; HRE assay (HRE/Luc/HEK293 cells): •••; cognitive function recovery compared to normal animals, passive avoidance test (effect %) (male ICR mice [2]; donepezil 5 mg/kg): ≥ 50%
COc1ccc2cc(Cc3ccc(O[C@H]4OC[C@H](O)[C@H](O)[C@H]4O)cc3)ccc2c1 [Example 20, ((2R,3R,4S,5S)-2-(4-(6-methoxynaphthalen-2-yl)methyl)phenoxy)tetrahydro-2H-pyran-3,4,5-triol]	1	1.1	61%	69%	38%	142 s	≥ 50%	
CCOc1ccc(C(C)(C)c2ccc(O[C@H]3OC[C@H](O)[C@H](O)[C@H]3O)cc2)cc1 [Example 31, (2R,3R,4S,5S)-2-(4-(2-(4-ethoxyphenyl)propan-2-yl)phenoxy)tetrahydro-2H-pyran-3,4,5-triol]	1.1	1.6	71%	68%	65%	204 s	≥ 50%	cognitive function recovery compared to normal animals, passive avoidance test (effect %) (male ICR mice [2]; donepezil 5 mg/kg): ≥ 50%
O[C@@H]1[C@@H](O)[C@@H](Oc2ccc(CC3CCCCC3)cc2)OC[C@@H]1O [Example 22, (2R,3R,4S,5S)-2-(4-(cyclohexylmethyl)phenoxy)tetrahydro-2H-pyran-3,4,5-triol]	2.5	2.8	56%	65%	36%	145 s	≥ 50%	
COc1cc2c(cc1OC)C(=O)C(CC1CCN(Cc3ccccc3)CC1)C2 (centres unmarked) [donepezil, reference compound]				67%		219 s		cognitive function recovery compared to normal animals, Y-maze experiment (effect %) (male ICR mice [1]; compounds 50 mg/kg, donepezil 5 mg/kg, orally for 7 days, scopolamine 1 mg/kg intraperitoneal): 35%; in vivo(effect) Y-maze (%) (male ICR mice [1]; [8]): 72%; in vivo Y-maze (%), range (male ICR mice [1]; [9]): 56-74%; in vivo(effect) Y-maze (%), range (male ICR mice [1]; [10]): 35-111%; cognitive function recovery compared to normal animals, passive avoidance test (effect %) (male ICR mice [2]; donepezil 5 mg/kg): 94%; in vivo(effect) PAT (%) (male ICR mice [2]; [8]): 82%; in vivo PAT (sec), range (male ICR mice [2]; [9]): 173~251 sec; in vivo(effect) PAT (%), range (male ICR mice [2]; [10]): 59-95%
O[C@@H]1[C@@H](O)[C@@H](Oc2ccc(Cc3ccc(OC4CCCC4)cc3)cc2)OC[C@@H]1O [Example 45, (2R,3R,4S,5S)-2-(4-(4-(cyclopentyloxy)benzyl)phenoxy)tetrahydro-2H-pyran-3,4,5-triol]								fold induction at 10 µM (HRE/Luc/HEK293 cells; HEK293, 18 h, Table 2 (Examples 37-74, 52), read-out: HKt-increasing 10uM): 1.1; fold induction at 100 µM (HRE/Luc/HEK293 cells; HEK293, 18 h, Table 2 (Examples 37-74, 52), read-out: HKt-increasing 100uM): 1.3
COc1ccc2oc(-c3cccc(O[C@H]4OC[C@H](O)[C@H](O)[C@H]4O)c3)nc2c1 [Example 107, (2R,3R,4S,5S)-2-(3-(5-methoxybenzo[d]oxazol-2-yl)phenoxy)tetrahydro-2H-pyran-3,4,5-triol]								fold induction at 10 µM (HRE/Luc/HEK293 cells; HEK293, 18 h, Table 2 (Examples 75-109, 114), read-out: HRE-inceasing 10uM): 3.1; fold induction at 100 µM (HRE/Luc/HEK293 cells; HEK293, 18 h, Table 2 (Examples 75-109, 114), read-out: HRE-inceasing 100uM): 4.2; HRE expression (HRE/Luc/HEK293 cells; low concentration of 1 µM): more than threefold
